# Tested on: Aedes albopictus
# Experiment: Room (30 m^3) release of 20 treated Chironomus against 10 sentinel cups, mosquito pupal mortality
# Type: in vivo
# Conditions: 20 treated Chironomus released in 30 m^3 room, 2 days (48 hour exposure), 10 cups each with 250 ml oak infusion
# Excerpt: FIG. 2. Mosquito pupal mortality achieved by releasing oil treated 20 Chironomus adults in a 30 m^3 room for 2 days against 10 sentinel cups. The average pupal mortality of Aedes albopictus was 88±3.5%.
# Chironomus females don't need blood feeding and the larvae are easy to culture. […] The larvae developed in cryptic sentinel cups indicated the treated female has visited the cup and laid eggs. In the same cup, pupal mortality of Aedes albpictus indicated the pyriproxyfen transfer (FIG. 5). We further challenged the technology in a meshed tunnel (50×3×2 m) setup in the field with 10 cryptic sentinel cups inside (FIG. 7) by releasing 50 treated C. decorus females for 5 days. […] The backyard experiment was conducted by treating 800 chironomid adults with oil formulation (20% a.i) first and followed with powder formulation (60% a.i) at a separate location to avoid contamination. In this experiment, the active ingredient (a.i.) was pyriproxyfen. In order to avoid any dew effect, release time was in the afternoon between 2 to 5 pm. […]
# Adults (males and females) of C. decorus (0 to 2 days old) will be collected and stored in a cage constructed with metal window screen. […] The cage with contaminated Chironomus then will be removed from the bottom of the chamber and ready for release in cases where only oil treatment is desired. […]
smiles,measurement,value
CC(COc1ccc(Oc2ccccc2)cc1)Oc1ccccn1 (stereo not shown) [pyriproxyfen],average pupal mortality of Aedes albopictus,88.5±3.5%

# From US11375708B2, “Methods and apparatus for management of mosquito populations with habitat sharing heterospecific insects carrying insect growth regulators” (Rutgers, The State University of New Jersey, priority 2015, dated 2022)
